According to patent publication US11919854B2, “P2RX7 modulators in therapy” (Centre national de la recherche scientifique, priority 2018, dated 2024):

Biological target: T1, mouse P2RX7 (mP2RX7) (Mus musculus, UniProt Q9Z1M0)
T1 construct: expressed in transfected cells; host or cells: HEK cells
T1 sequence (Q9Z1M0 1-595): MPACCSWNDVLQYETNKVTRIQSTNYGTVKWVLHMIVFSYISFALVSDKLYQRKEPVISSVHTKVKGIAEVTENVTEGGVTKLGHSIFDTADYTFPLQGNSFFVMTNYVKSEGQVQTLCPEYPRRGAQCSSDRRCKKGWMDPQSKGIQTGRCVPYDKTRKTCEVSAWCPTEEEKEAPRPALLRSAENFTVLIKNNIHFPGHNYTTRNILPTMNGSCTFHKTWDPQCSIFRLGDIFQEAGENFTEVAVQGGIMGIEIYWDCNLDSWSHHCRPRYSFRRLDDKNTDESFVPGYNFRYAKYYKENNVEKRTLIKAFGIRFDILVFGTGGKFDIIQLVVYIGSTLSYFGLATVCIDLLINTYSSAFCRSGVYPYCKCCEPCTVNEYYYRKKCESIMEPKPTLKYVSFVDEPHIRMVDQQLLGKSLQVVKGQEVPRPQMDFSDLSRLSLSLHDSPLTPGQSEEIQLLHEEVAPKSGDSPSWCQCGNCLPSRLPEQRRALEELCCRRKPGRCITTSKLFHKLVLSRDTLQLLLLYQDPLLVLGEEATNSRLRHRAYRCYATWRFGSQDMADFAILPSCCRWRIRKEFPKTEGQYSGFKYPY
Assay: Channel activity (Fluo4-AM) and large pore opening (Topro3) by flow cytometry, HEK cells expressing mP2RX7, 1 h BzATP
Type: cell-based
Protocol: Calcium channel activity (Fluo4AM probe) and large pore opening (Topro3 probe) were analysed by FACS on mP2RX7 HEK cells. Cells were non stimulated (NS) or treated with BzATP (500 μM) alone or in the presence of HEI2314, HEI2328, HEI2333 or HEI2336 (used at 50 μM).
Calcium channel activity (Fluo4AM probe) and large pore opening (Topro3 probe) were analysed by FACS on mock and mP2RX7 HEK cells. Cells were non stimulated (NS) or treated with BzATP (500 μM) alone or in the presence of HEI2328 used at 50 μM.
2.1. […] Cation channel activity is assayed with the Fluo4 AM (Invitrogen) probe and opening of large pore with Topro3 (Invitrogen). In each experiment 2×10^6 cells were incubated with 50 nM Fluo4-AM for 30 minutes. After washing, cells were treated with 500 μM BzATP (3′-O-(4-benzoyl)benzoyl ATP) for 1 h, or non-treated, in presence of the compounds of the invention at 50 μM. When indicated, the Topro3 probe (8.5 nM) was added during the 1 h stimulation time. Fluorescence was assayed by flow cytometry.

[1] = cells expressing mP2RX7, BzATP 500 μM

Structure (SMILES) | Topro3 positive cells (BzATP 500 μM only, 1 h, mP2RX7 cells) [%] | activity in Mock cells (Mock HEK cells (no P2X receptors)) | increase of Ca2+ entry [1] [fold] | increase of large pore opening [1] [fold] | Topro3 entry (large pore opening) (compound 50 μM, BzATP 500 μM, 1 h, mP2RX7 HEK cells)
Nc1ncnc2c1ncn2[C@@H]1O[C@H](COP(=O)(O)OP(=O)(O)OP(=O)(O)O)[C@@H](OC(=O)c2ccc(C(=O)c3ccccc3)cc2)[C@H]1O [BzATP, 3′-O-(4-benzoyl)benzoyl ATP, reference compound] | 24.7 | inactive | 15 | 4 | –
O=C(NCc1ccc(Cl)cc1Cl)[C@@H]1CCC(=O)N1C(=O)Nc1ccccc1Cl [HEI2314, (S)—N^1-(2-Chlorophenyl)-N^2-(2,4-dichlorobenzyl)-5-oxopyrrolidine-1,2-dicarboxamide] | – | – | – | – | increase Topro3 entry only in presence of BzATP
